Entries after “also recorded” stand apart in the source; their conditions may differ. Structures can show the parent of a compound that is named as a salt. Where two headings read alike, the source gives them in different places.
Legend:
Vero cells = assay: Cytotoxicity (cell viability) in the SARS-CoV-2 Vero cell assay; settings: Table 2 test
SARS-CoV-2 [1] = assay: microbe, parasite or virus in culture; format: cell-based; settings: for IC50: SARS-CoV-2 infected Vero cells; for anti-SARS-CoV-2 activity (in words): Vero cell assay
[2] = Cytotoxicity (cell viability) in the SARS-CoV-2 Vero cell assay; settings: African green monkey, Vero cells
HCoV-OC43 = assay: Anti-HCoV-OC43 compound testing in MRC5 cells (Cell-Titer Glo); format: cell-based; settings: for activity against HCoV-OC43 (in words): MRC5 cells
Protocol: (§1) Human lung fibroblast MRC5 cells were cultured in a 96-well plate at 10,000 cells/well in EMEM + 10% FBS overnight. The next day the culture medium was removed from each well and compounds in EMEM + 2% FBS + 0.5% DMSO were added. Each drug was tested on its own 96 well plate. Each plate contained 3 wells of uninfected cells without DMSO, 3 wells of uninfected cells with 0.5% DMSO, 3 wells of infected cells with no DMSO, and 3 wells of infected cells with 0.5% DMSO. Experimental compounds were tested in triplicate at each concentration. Tanespimycin, bortezomib, and homoharringtonine were tested using 2 µM starting concentration, 8-point, threefold serial dilution. After a 1-h pre-incubation with testing compounds, HCoV-229E or HCoV-OC43 viruses at an MOI of 0.01 were added to the culture with compounds for another 1 h. Cell-Titer Glo assay was added after additional incubation time with compounds of interest (HCoV-229E for 96 h and HCoV-OC43 for 120 h). Assay readout was performed using luminescence measurement on a Tecan Spark plate reader.
(§2) CC50 values were determined by applying nonlinear fit of luminescence readouts from uninfected, compound-treated wells against compound concentration. Likewise, EC50 values were determined by nonlinear fit of luminescence readouts from virus-infected, compound-treated wells. Nonlinear regression models were applied for derivation of EC50 and CC50 values respectively, based on built-in equations of Prism Version 8.2.1 (GraphPad Software, San Diego, CA). SI calculated as the ratio of CC50 to EC50.

[3] = human, in vivo
HCoV-229E = assay: Anti-HCoV-229E compound testing in MRC5 cells (Cell-Titer Glo); format: cell-based; settings: for EC50: Human coronavirus 229E; for activity against HCoV-229E (in words): MRC5 cells
Protocol: as §1, §2

[4] = Cytotoxicity in uninfected, compound-treated MRC5 cells (Cell-Titer Glo); settings: human
in vitro = settings: African green monkey, Vero cells
[5] = Clinical dosing estimation of compounds (clinical exposure, Cmax); settings: calculated from published Cmax and molecular weight
SARS-CoV-2 [6] = settings: read-out: reported IC50; cited from earlier work
SARS-CoV-1 = settings: 10 μM, Huh-7 cells; cited from earlier work
SARS-CoV-2 [7] = settings: 10 μM, Huh-7 cells; cited from earlier work
MERS-CoV = settings: 10 μM, Huh-7 cells; cited from earlier work
[8] = Betacoronavirus 1, MRC5 cells infected with HCoV-OC43, MOI 0.01, 120 h, read-out: EC50
[9] = MRC5 cells infected with HCoV-229E, MOI 0.01, 96 h, read-out: EC50
[10] = uninfected MRC5 lung fibroblast cells
[11] = Severe acute respiratory syndrome coronavirus 2, Vero, Round 1, 24 h, 1-h preincubation, read-out: IC50
[12] = Severe acute respiratory syndrome coronavirus 2, Vero, Round 2, 24 h, 1-h preincubation, read-out: IC50
[13] = Severe acute respiratory syndrome coronavirus 2, Vero, 24 h, Table 2 test (average reversal score predicted compounds)
[14] = Severe acute respiratory syndrome coronavirus 2, Vero, Round 1, 24 h, 1-h preincubation
[15] = Severe acute respiratory syndrome coronavirus 2, Vero, Round 2, 24 h, 1-h preincubation

SMILES: N[C@@H]1CCCN(c2c(/C=C3\SC(=O)NC3=O)cccc2-c2ccccc2)C1 [AZD-1208]
- CC50 (Vero cells): > 50 µM
- IC50 (SARS-CoV-2 [1]; Table 2 test (average reversal score predicted compounds), read-out: IC50): 27.3 µM

SMILES: CC(C)C[C@H](NC(=O)[C@H](Cc1ccccc1)NC(=O)c1cnccn1)B(O)O [Bortezomib]
- CC50 at 24 h ([2]; CC50, Round 1): > 50 µM
- CC50 at 24 h ([2]; CC50, Round 2): > 50 µM
- EC50 (HCoV-OC43; [8]): 0.666 µM
- activity against HCoV-OC43 (in words) (HCoV-OC43): no activity
- activity against HCoV-OC43 (in words) (HCoV-OC43; listed as bortezomib): did not find bortezomib to be effective
- Clinical Exposure [3]: 0.29 µM
- Clinical Exposure ([3]; iv): approximately 580 nM
- EC50 (HCoV-229E; [9]): 0.252 µM
- activity against HCoV-229E (in words) (HCoV-229E): no activity
- activity against HCoV-229E (in words) (HCoV-229E; listed as bortezomib): did not find bortezomib to be effective
- CC50 at 96 h [4, 10]: 0.536 µM
- CC50 at 120 h [4, 10]: 0.591 µM
- IC50 (SARS-CoV-2 [1]; [11]): 1.39 µM
- IC50 (SARS-CoV-2 [1]; [12]): 3.42 µM
- anti-SARS-CoV-2 activity (in words) (SARS-CoV-2 [1]): showed efficacy in controlling viral load

SMILES: CCN(CC)CCCC(C)Nc1ccnc2cc(Cl)ccc12 (stereo not shown) [Chloroquine]
- CC50 (in vitro; CC50, Round 1): 128 µM
- CC50 (in vitro; CC50, Round 2): > 150 µM
- CC50 (in vitro; CC50, Table 2 test): > 150 µM
- IC50 (SARS-CoV-2 [1]; [13]): 11.3 µM
- IC50 (SARS-CoV-2 [1]; [14]): 12 µM
- IC50 (SARS-CoV-2 [1]; [15]): 9.8 µM

SMILES: Cc1nc(Nc2ncc(C(=O)Nc3c(C)cccc3Cl)s2)cc(N2CCN(CCO)CC2)n1 [Dasatinib]
- CC50 at 24 h ([2]; CC50, Round 1): 13.2 µM
- IC50 (SARS-CoV-2 [1]; [11]): 19.7 µM

SMILES: CC(C)c1cc(-c2n[nH]c(=O)n2-c2ccc3c(ccn3C)c2)c(O)cc1O [Ganetespib]
- CC50 at 24 h ([2]; CC50, Round 2): 28.9 µM
- IC50 (SARS-CoV-2 [1]; [12]): 35.5 µM
- anti-SARS-CoV-2 activity (in words) (SARS-CoV-2 [1]): no activity; also recorded: neither tanespimycin nor a second generation HSP90 inhibitor ganetespib exhibited anti-viral efficacy

SMILES: COC(=O)C[C@](O)(CCCC(C)(C)O)C(=O)O[C@@H]1C(OC)=C[C@]23CCCN2CCc2cc4c(cc2[C@H]13)OCO4 [Homoharringtonine]
- CC50 at 24 h ([2]; CC50, Round 1): 2.14 µM
- CC50 at 24 h ([2]; CC50, Round 2): 6.22 µM
- EC50 (HCoV-OC43; Betacoronavirus 1, OC43, MRC5): < 0.1 µM
- EC50 (HCoV-OC43; [8]): 0.126 µM
- activity against HCoV-OC43 (in words) (HCoV-OC43): highly effective
- EC50 (HCoV-229E; MRC5): < 0.1 µM
- EC50 (HCoV-229E; [9]): 0.0511 µM
- activity against HCoV-229E (in words) (HCoV-229E): highly effective
- CC50 at 96 h [4, 10]: 0.205 µM
- CC50 at 120 h [4, 10]: 0.167 µM
- Clinical Exposure [5]: 0.046 µM
- average EC50/IC50 (SARS-CoV-2 [1]; SARS-CoV-2, Vero cells, average of the rounds): under 300 nM
- IC50 (SARS-CoV-2 [1]; [14]): 0.16 µM
- IC50 (SARS-CoV-2 [1]; [15]): 0.26 µM
- anti-SARS-CoV-2 activity (in words) (SARS-CoV-2 [1]): highly effective

SMILES: CC(C)C[C@H](NC(=O)CNC(=O)c1cc(Cl)ccc1Cl)B(O)O [Ixazomib]
- CC50 at 24 h ([2]; CC50, Round 2): > 50 µM
- IC50 (SARS-CoV-2 [1]; [12]): 11.7 µM
- anti-SARS-CoV-2 activity (in words) (SARS-CoV-2 [1]): showed efficacy in controlling viral load

SMILES: CCOC(=O)C1=C(C)NC(C)=C(C(=O)OCC)C1c1ccccc1/C=C/C(=O)OC(C)(C)C [Lacidipine]
- CC50 at 24 h ([2]; CC50, Round 1): 20.2 µM
- Clinical Exposure [3]: 0.003 to 0.013 µM
- IC50 (SARS-CoV-2 [1]; [11]): 14.9 µM

SMILES: CC[C@@H](C(N)=O)N1CCCC1=O [Levetiracetam]
- CC50 at 24 h ([2]; CC50, Table 2 test): > 50 µM
- IC50 (SARS-CoV-2 [1]; [13]): > 50 µM
- anti-SARS-CoV-2 activity (in words) (SARS-CoV-2 [1]): no anti-viral activity
- anti-SARS-CoV-2 activity (in words) (SARS-CoV-2 [1]; listed as levetiracetam): did not show meaningful anti-SARS-CoV-2 activity; also recorded: did not result in a meaningful effect on viral production

SMILES: Cc1cccc(C)c1OCC(=O)N[C@@H](Cc1ccccc1)[C@@H](O)C[C@H](Cc1ccccc1)NC(=O)[C@H](C(C)C)N1CCCNC1=O [Lopinavir]
- CC50 at 24 h ([2]; CC50, Round 2): > 50 µM
- CC50 at 24 h ([2]; CC50, Table 2 test): > 50 µM
- IC50 (SARS-CoV-2 [1]; [13]): 12.6 µM
- IC50 (SARS-CoV-2 [1]; [15]): 13.5 µM

SMILES: Cc1ccc(Cl)c(Nc2ccccc2C(=O)O)c1Cl [Meclofenamic acid sodium salt]
- CC50 at 24 h ([2]; CC50, Table 2 test): > 50 µM

SMILES: C#CCC(Cc1cnc2nc(N)nc(N)c2n1)c1ccc(C(=O)N[C@@H](CCC(=O)O)C(=O)O)cc1 (stereo partly shown) [Pralatrexate]
- IC50 (SARS-CoV-2 [6]): 0.008 µM

SMILES: CCC(CC)COC(=O)[C@H](C)N[P@](=O)(OC[C@H]1O[C@@](C#N)(c2ccc3c(N)ncnn23)[C@H](O)[C@@H]1O)Oc1ccccc1 [Remdesivir]
- CC50 at 24 h ([2]; CC50, Round 1): > 50 µM
- CC50 at 24 h ([2]; CC50, Round 2): > 50 µM
- CC50 at 24 h ([2]; CC50, Table 2 test): > 50 µM
- IC50 (SARS-CoV-2 [1]; [13]): 8.58 µM
- IC50 (SARS-CoV-2 [1]; [14]): 12.1 µM
- IC50 (SARS-CoV-2 [1]; [15]): 7.45 µM

SMILES: O=C(O)c1ccccc1Nc1cccc(OCc2ccc3ccccc3n2)c1 [SR-2640 hydrochloride]
- CC50 at 24 h ([2]; CC50, Table 2 test): > 50 µM
- IC50 (SARS-CoV-2 [1]; [13]): 24.2 µM
- anti-SARS-CoV-2 activity (in words) (SARS-CoV-2 [1]): did not result in a meaningful effect on viral production

SMILES: N[C@@H](CC(=O)N1CCn2c(nnc2C(F)(F)F)C1)Cc1cc(F)c(F)cc1F [Sitagliptin]
- CC50 at 24 h ([2]; CC50, Table 2 test): > 50 µM
- IC50 (SARS-CoV-2 [1]; Severe acute respiratory syndrome coronavirus 2, Vero, 24 h, Table 2 test (average reversal score predicted compounds), read-out: IC50): > 50 µM
- anti-SARS-CoV-2 activity (in words) (SARS-CoV-2 [1]): did not show meaningful anti-SARS-CoV-2 activity

SMILES: C=CCNC1=C2C[C@@H](C)C[C@H](OC)[C@H](O)[C@@H](C)/C=C(\C)[C@H](OC(N)=O)[C@@H](OC)/C=C\C=C(/C)C(=O)NC(=CC1=O)C2=O [Tanespimycin]
- inhibition of viral activities of SARS-CoV-1 (SARS-CoV-1): effectively inhibited
- CC50 at 24 h ([2]; CC50, Round 2): > 50 µM
- EC50 (HCoV-OC43; Betacoronavirus 1, OC43, MRC5): < 0.001 µM
- EC50 (HCoV-OC43; [8]): 0.0019 µM
- activity against HCoV-OC43 (in words) (HCoV-OC43): effective
- activity against HCoV-OC43 (in words) (HCoV-OC43; listed as tanespimycin): highly potent
- EC50 (HCoV-229E; MRC5): < 0.001 µM
- EC50 (HCoV-229E; MRC5, 96 h): 0.0036 µM
- activity against HCoV-229E (in words) (HCoV-229E): effective
- activity against HCoV-229E (in words) (HCoV-229E; listed as tanespimycin): highly potent
- CC50 at 96 h [4]: 0.182 µM
- CC50 at 120 h [4]: 0.253 µM
- inhibition of viral activities of SARS-CoV-2 (SARS-CoV-2 [7]): effectively inhibited
- IC50 (SARS-CoV-2 [1]; [12]): 31.3 µM
- anti-SARS-CoV-2 activity (in words) (SARS-CoV-2 [1]): no activity
- anti-SARS-CoV-2 activity (in words) (SARS-CoV-2 [1]; listed as tanespimycin): neither tanespimycin nor a second generation HSP90 inhibitor ganetespib exhibited anti-viral efficacy
- inhibition of viral activities of MERS-CoV (MERS-CoV): effectively inhibited

SMILES: CC(=O)Nc1cccc(-n2c(=O)n(C3CC3)c(=O)c3c(Nc4ccc(I)cc4F)n(C)c(=O)c(C)c32)c1 [Trametinib]
- CC50 at 24 h ([2]; CC50, Round 1): > 50 µM
- Clinical Exposure [5]: 0.045 µM
- IC50 (SARS-CoV-2 [1]; [11]): 15 µM
